Measured values reported in ChEMBL document CHEMBL4364251, “Design, synthesis and biological evaluation of new quinoline derivatives as potential antitumor agents” (Eur J Med Chem, 2019).
The source made the active and inactive calls. No cut-off for these calls is given here.

Legend:
[1] = test system: HCT-116; assay: Induction of apoptosis in human HCT116 cells deficient in ATG7 assessed as early apoptotic cells at 8 uM incubated for 24 hrs by annexin-V-FITC/PI staining based FACS analysis (reference value: 2.32%); assay type: functional
[2] = test system: NCI-H1650; assay: Antiproliferative activity against human NCI-H1650 cells incubated for 48 hrs by MTT assay; assay type: functional, cell-based; conditions: NCI-H1650, 48 h
[3] = test system: HCT-116; assay: Induction of apoptosis in human HCT116 cells deficient in ATG7 assessed as necrotic cells at 8 uM incubated for 24 hrs by annexin-V-FITC/PI staining based FACS analysis (reference value: 5.58%); assay type: functional
[4] = test system: HCT-116; assay: Induction of apoptosis in human HCT116 cells assessed as increase in cleaved PARP protein expression level at 4 to 8 uM incubated for 24 hrs in presence of pan-caspase inhibitor z-VAD-FMK by Western blot analysis; assay type: functional, cell-based
[5] = test system: HCT-116; assay: Induction of autophagy in human HCT116 cells deficient in ATG5 assessed as increase in LC3B-2 protein expression level at 4 to 8 uM by Western blot analysis; assay type: functional, cell-based
[6] = test system: HCT-116; assay: Induction of apoptosis in human HCT116 cells assessed as late apoptotic cells at 8 uM incubated for 24 hrs in presence of pan-caspase inhibitor z-VAD-FMK by annexin-V-FITC/PI staining based FACS analysis (reference value: 6.04%); assay type: functional
[7] = test system: Mus musculus; assay: Antitumour activity against mouse […] cells implanted in BALB/c mouse assessed as decrease in tumour volume at 80 mg/kg administered once every three days for 21 days post tumour implantation and measured at day 13 by caliper method; assay type: functional, organism-based
[8] = test system: HCT-116; assay: Induction of apoptosis in human HCT116 cells assessed as late apoptotic cells at 4 uM incubated for 24 hrs by annexin-V-FITC/PI staining based FACS analysis (reference value: 1.55 to 1.56%); assay type: functional
[9] = test system: BGC-823; assay: Antiproliferative activity against human BGC823 cells incubated for 48 hrs by MTT assay; assay type: functional, cell-based; conditions: BGC-823, 48 h
[10] = test system: HCT-116; assay: Induction of morphological changes in human HCT116 cells assessed as reduction in cell number at 4 to 10 uM incubated for 24 hrs by phase-contrast microscopic method; assay type: functional, cell-based
[11] = test system: HCT-116; assay: Antiproliferative activity against human HCT116 cells expressing ATG5(-/-) assessed as cell viability incubated for 24 hrs by CCK8 assay; assay type: functional, cell-based
[12] = test system: HCT-116; assay: Induction of morphological changes in human HCT116 cells assessed as cell shrinkage at 4 to 10 uM incubated for 24 hrs by phase-contrast microscopic method; assay type: functional, cell-based
[13] = test system: HCT-116; assay: Induction of apoptosis in human HCT116 cells assessed as early apoptotic cells at 4 uM incubated for 24 hrs by annexin-V-FITC/PI staining based FACS analysis (reference value: 1.77 to 3.38%); assay type: functional
[14] = test system: A2780; assay: Antiproliferative activity against human A2780 cells incubated for 48 hrs by MTT assay; assay type: functional, cell-based; conditions: A2780, 48 h
[15] = test system: HCT-116; assay: Induction of apoptosis in human HCT116 cells deficient in p53 assessed as increase in pro-caspase3 protein expression level at 4 to 8 uM incubated for 24 hrs by Western blot analysis; assay type: functional, cell-based
[16] = Antitumour activity against mouse […] cells implanted in BALB/c mouse assessed inhibition in tumour growth at 80 mg/kg administered once every three days for 21 days post tumour implantation relative to control; assay type: functional; conditions: read-out: TGI
[17] = test system: RKO; assay: Antiproliferative activity against human RKO cells incubated for 48 hrs by MTT assay; assay type: functional, cell-based
[18] = test system: HCT-116; assay: Induction of apoptosis in human HCT116 cells assessed as early apoptotic cells at 4 uM incubated for 24 hrs in presence of pan-caspase inhibitor z-VAD-FMK by annexin-V-FITC/PI staining based FACS analysis (reference value: 8.08%); assay type: functional
[19] = test system: RKO; assay: Growth inhibition of human RKO cells at 1 uM by CCK-8 assay; assay type: functional, cell-based; conditions: TDE = time-dependent effect
[20] = test system: HCT-116; assay: Induction of apoptosis in human HCT116 cells deficient in ATG7 assessed as viable cells at 8 uM incubated for 24 hrs by annexin-V-FITC/PI staining based FACS analysis (reference value: 85.27%); assay type: functional; conditions: HCT-116, 24 h, read-out: Activity
[21] = test system: HCT-116; assay: Antiproliferative activity against human HCT116 expressing p53 (-/-) at 1 to 16 uM assessed as decrease cell viability incubated for 24 hrs by CCK-8 assay; assay type: functional, cell-based
[22] = test system: HCT-116; assay: Induction of autophagy in human HCT116 cells assessed as increase in LC3B-2 protein expression level incubated for 24 hrs by Western blot analysis; assay type: functional, cell-based
[23] = test system: RKO; assay: Growth inhibition of human RKO cells incubated for 24 hrs by CCK-8 assay; assay type: functional, cell-based
[24] = test system: HCT-116; assay: Induction of autophagy in human HCT116 cells assessed as increase in LC3B-2 protein expression level at 6 uM by Western blot analysis; assay type: functional, cell-based; conditions: TDE = time-dependent effect
[25] = test system: HCT-116; assay: Induction of apoptosis in human HCT116 cells assessed as necrotic cells at 4 uM incubated for 24 hrs by annexin-V-FITC/PI staining based FACS analysis (reference value: 0.71 to 2.26%); assay type: functional
[26] = test system: HCT-116; assay: Induction of apoptosis in human HCT116 cells assessed as late apoptotic cells at 4 uM incubated for 24 hrs in presence of pan-caspase inhibitor z-VAD-FMK by annexin-V-FITC/PI staining based FACS analysis (reference value: 6.04%); assay type: functional
[27] = test system: HCT-116; assay: Induction of apoptosis in human HCT116 cells assessed as late apoptotic cells incubated for 24 hrs by annexin-V-FITC/PI staining based FACS analysis; assay type: functional, cell-based
[28] = test system: HCT-116; assay: Induction of autophagy in human HCT116 cells expressed with LC3B-EGFP-mCheery assessed as LC3 assembly on membrane of autophagosome incubated for 24 hrs by DAPI staining based confocal microscopic method; assay type: functional, cell-based
[29] = test system: HCT-116; assay: Inhibition of colony formation in human HCT116 cells incubated for 24 hrs followed by compound washout and subsequent incubation for 10 to 14 days by crystal violet staining based assay; assay type: functional, cell-based
[30] = test system: RKO; assay: Inhibition of colony formation in human RKO cells incubated for 24 hrs followed by compound washout and subsequent incubation for 10 to 14 days by crystal violet staining based assay; assay type: functional, cell-based
[31] = test system: HCT-116; assay: Antiproliferative activity against human HCT116 cells incubated for 48 hrs by MTT assay; assay type: functional, cell-based; conditions: HCT-116, 48 h
[32] = test system: HCT-116; assay: Induction of apoptosis in human HCT116 cells assessed as early apoptotic cells at 8 uM incubated for 24 hrs in presence of pan-caspase inhibitor z-VAD-FMK by annexin-V-FITC/PI staining based FACS analysis (reference value: 8.08%); assay type: functional
[33] = test system: HCT-116; assay: Induction of autophagy in human HCT116 cells assessed as decrease in ATG5 protein expression level incubated for 24 hrs by Western blot analysis; assay type: functional, cell-based
[34] = test system: HCT-116; assay: Induction of apoptosis in human HCT116 cells assessed as early apoptotic cells incubated for 24 hrs by annexin-V-FITC/PI staining based FACS analysis; assay type: functional, cell-based
[35] = test system: A549; assay: Antiproliferative activity against human A549 cells incubated for 48 hrs by MTT assay; assay type: functional, cell-based; conditions: A549, 48 h
[36] = test system: HCT-116; assay: Induction of apoptosis in human HCT116 cells assessed as late apoptotic cells at 8 uM incubated for 24 hrs by annexin-V-FITC/PI staining based FACS analysis (reference value: 1.55 to 1.56%); assay type: functional

IC50 [2]: 6.3 µM | IC50 [9]: 9.08 µM | IC50 [14]: 3.46 µM | IC50 [31]: 2.56 µM | IC50 [35]: 8.22 µM
Structure (SMILES): COc1cccc(Nc2ccnc3cc(OCCCc4ccccc4)ccc23)c1
Activity [1]: 5.26% | Activity [3]: 7.04% | Activity [4]: Active | Activity [5]: inactive | Activity [6]: 16% | Activity [7]: Active | Activity [8]: 11.64% | Activity [10]: Active | Activity [11]: inactive | Activity [12]: Active | Activity [13]: 11.97% | Activity [15]: Active | inhibition in vivo at 80 mg/kg [16]: 82.1% | IC50 [17]: 3.67 µM | Activity [18]: 15.45% | growth inhibition (GI) [19]: Tde | viability at 8 µM [20]: 76.7% | Activity [21]: Active | Activity [22]: Dose-dependent effect | growth inhibition (GI) [23]: Dose-dependent effect | Activity [24]: Tde | Activity [25]: 0.95% | Activity [26]: 8.17% | Activity [27]: Dose-dependent effect | Activity [28]: Dose-dependent effect | inhibition [29]: Dose-dependent effect | inhibition [30]: Dose-dependent effect | Activity [32]: 19.42% | Activity [33]: Dose-dependent effect | Activity [34]: Dose-dependent effect | Activity [36]: 15.38 - 17.66%
